Laboratory results from patent publication US9085756B2, “Drug screening using islet cells and islet cell progenitors from human embryonic stem cells” (Asterias Biotherapeutic, Inc., priority 2001, dated 2015).

Test system: hES cells
Assay: Hepatocyte differentiation of hES cells, morphology
Assay type: cell-based, human
Conditions: 4 days in medium containing butyrate (after 1% DMSO pre-differentiation)
Excerpt: Undifferentiated hES cells were differentiated into cells having characteristics of human hepatocytes using a strategy to initiate a global differentiation process using DMSO in a subconfluent culture. The cells are then induced to form hepatocyte-like cells by the addition of Na-butyrate.
Briefly, the hES cells were maintained in undifferentiated culture conditions for 2-3 days after splitting. At this time, the cells were 50 to 60% confluent and the medium was exchanged with unconditioned SR medium containing 1% DMSO (Step II). The cultures were fed daily with SR medium for 4 days and then exchanged into unconditioned SR medium containing both 1% DMSO and […] Na-butyrate, with which they were fed daily for 6 days (Step III). They were then replated onto collagen, and cultured in a hepatocyte maturation medium containing a cocktail of hepatocyte-friendly growth factors (Step IV).

For `CCCC(=O)[O-].[Na+]` [butyrate, sodium n-butyrate], the “Cells in the culture with large nuclei and granular cytoplasm” value was “more than 80%” and the “Cells in the culture with large nuclei and granular cytoplasm” value (listed as sodium n-butyrate) was “More than 80%”.
